Assay in all cases: DTP human tumour cell line panel, 48 h
For experiment [1], the system named is SNB-19.
For experiment [2], the system named is MDA-N.
For experiment [3], the system named is OVCAR-4.
Experiment [4] has as its system HCT-116.
In experiment [5] the test system is EKVX.
Experiment [6] concerns A549.
Experiment [7] relates to NCI-H460.
For experiment [8], the system named is MOLT-4.
The test system of experiment [9] is MCF7.
Experiment [10] deals with SK-MEL-5.
For experiment [11], the system named is IGROV-1.
Experiment [12] concerns HOP-92.
Experiment [13] concerns MDA-MB-435.
Experiment [14] deals with HCT-15.
Experiment [15] has as its system SK-MEL-2.
The subject of experiment [16] is NCI-H522.
For experiment [17], the system named is SR.

Molecules are shown by their SMILES.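 Dose response: 5 concentrations. Exposure: 48 h. Format: 96-well plates. Endpoint: linear interpolation; highest concentration if not reached. Abbreviation: GI50, concentration required for 50% inhibition of growth.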 Calls of active or inactive are those of the source. Rule as the data show it: active = GI50 up to about 1.1 µM and inactive = higher.

We go through eleven compounds from ChEMBL document CHEMBL1201862, “PubChem BioAssay data set” (2004).

On to `NCCCN(CCCCN(CCCN)Cc1ccc2ccccc2c1)Cc1ccc2ccccc2c1`, for which the GI50 in experiment [1] was 1.53 µM (inactive); in [2] it was 1.88 µM (inactive); in [3], 1.99 µM (inactive); in experiment [4], 2.54 µM (inactive); in [5], 1.77 µM (inactive); in [6], 1.68 µM (inactive). Moreover, the GI50 in experiment [7] is 1.55 µM (inactive); in experiment [8], 2.01 µM (inactive); in [9], 2.09 µM (inactive); in experiment [10], 1.92 µM (inactive); in experiment [11] it was 1.82 µM (inactive); in experiment [12], 2.83 µM (inactive). For the same compound, the GI50 in experiment [13] was 2.2 µM (inactive); in experiment [14], 3.58 µM.

For `Cc1ccc(C(C2C(=O)N(C)C(=O)N(C)C2=O)C(F)(F)C(=O)N(C)C)cc1` (stereo not drawn), the GI50 in experiment [1], in experiment [3], in experiment [4], in [5], in experiment [6] and in experiment [7] was > 100 µM (inactive) each time. Further, the GI50 in experiment [9] is > 100 µM (inactive); in experiment [10] it was > 100 µM (inactive); in experiment [12] it was > 100 µM (inactive); in experiment [13], > 100 µM (inactive); in [15], > 100 µM (inactive); in experiment [14] it was > 100 µM.

On to `CN1CCN(c2ccc3nc(C4=C(O)C(=O)[C@@H]5C(=C4O)N=C(CO)N5C)[nH]c3n2)CC1`, for which the GI50 in [1] was 57.5 µM (inactive); in experiment [3] it was 75.2 µM (inactive); in experiment [4], 94.2 µM (inactive); in [5] it was > 100 µM (inactive); in experiment [6], > 100 µM (inactive); in [7] it was > 100 µM (inactive). Further, the GI50 in experiment [8] was > 100 µM (inactive); in [16], 64.3 µM (inactive); in [11], > 100 µM (inactive); in experiment [12] it was 55 µM (inactive); in [13], 93.8 µM (inactive); in experiment [14] it was > 100 µM.

For `COc1cc(C(=O)N(C(=S)OC23CC4CC(CC(C4)C2)C3)c2ccccc2)cc(OC)c1OC`, the GI50 was 34.6 µM (inactive) in experiment [1]; 25.1 µM (inactive) in experiment [2]; 29.2 µM (inactive) in experiment [3]; 16.1 µM (inactive) in experiment [4]; 14.8 µM (inactive) in experiment [5]; 26.1 µM (inactive) in experiment [6]. Moreover, the GI50 is 27.1 µM (inactive) in experiment [7]; 2.82 µM (inactive) in [8]; 29.4 µM (inactive) in experiment [9]; 16.1 µM (inactive) in [10]; 3.95 µM (inactive) in experiment [16]; 21 µM (inactive) in [12]. The GI50 was 29.5 µM (inactive) in experiment [13], 15.2 µM (inactive) in experiment [15] and 26.5 µM in [14].

As to `Cc1cc(-c2nc3c(F)cccc3s2)ccc1N`, the GI50 in experiment [2] is 70.1 µM (inactive); in [4], 85.1 µM (inactive); in [5], 2.42 µM (inactive); in experiment [17], 48 µM (inactive); in [6], 49.3 µM (inactive); in experiment [8] it was 10.7 µM (inactive). Moreover, the GI50 in [10] was 62.2 µM (inactive); in [16], 11.3 µM (inactive); in experiment [12], > 100 µM (inactive); in [13], 57.3 µM (inactive); in experiment [15] it was > 100 µM (inactive); in experiment [14], 84.9 µM.

Turning to `c1ccc2c(c1)c1c(n2CCOCCN2CCOCC2)CCCC1`, the GI50 in [1] is > 100 µM (inactive); in experiment [2], 37.8 µM (inactive); in [3], 14.3 µM (inactive); in experiment [4], 29.8 µM (inactive); in experiment [5], 30.9 µM (inactive); in experiment [17] it was 30.3 µM (inactive). Also, the GI50 in experiment [6] was 45.2 µM (inactive); in [7] it was 27.5 µM (inactive); in [8], 25 µM (inactive); in [9] it was 38.8 µM (inactive); in experiment [10] it was 18.2 µM (inactive); in [11] it was 36 µM (inactive). The GI50 is 29.2 µM (inactive) in experiment [12], 24.2 µM (inactive) in experiment [15] and 36.5 µM in experiment [14].

In the case of `COc1ccc(S(=O)(=O)c2nnc(S(=O)(=O)Cc3ccccc3)s2)cc1`, the GI50 in experiment [1] is 20.8 µM (inactive); in experiment [3], 44.5 µM (inactive); in [4], 20.4 µM (inactive); in experiment [5] it was 22.4 µM (inactive); in experiment [6] it was 20.8 µM (inactive); in experiment [7], 17.4 µM (inactive). Also, the GI50 is 2.58 µM (inactive) in [8]; 19.2 µM (inactive) in experiment [9]; 19.5 µM (inactive) in experiment [10]; 8.18 µM (inactive) in experiment [16]; 22.5 µM (inactive) in [13]; 18.3 µM (inactive) in [15]. In [14], it took 25.7 µM to inhibit growth by half (GI50).

For the compound `CC1(C)OC2OC(C(COS(=O)(=O)C(F)(F)F)N=[N+]=[N-])C(OC(=O)c3ccccc3)C2O1` (stereo not drawn), the GI50 in experiment [1], in experiment [2], in experiment [3], in experiment [4], in experiment [5] and in experiment [6] was > 100 µM (inactive) each time. Further, the GI50 in experiment [7], in experiment [8], in experiment [9], in experiment [10], in experiment [12] and in experiment [13] was > 100 µM (inactive) throughout. Also, the results for the GI50 in [15] and in [14] were > 100 µM (inactive) and > 100 µM, respectively.

Consider `COc1cc(OC)c(C2c3cc4c(cc3OC(N3CCCC3)C2C)OCO4)c(OC)c1` (stereo not drawn), for which the GI50 is 15 µM (inactive) in experiment [1]; 15 µM (inactive) in [2]; 3.98 µM (inactive) in experiment [4]; 22.3 µM (inactive) in experiment [5]; 11.1 µM (inactive) in experiment [17]; 19.7 µM (inactive) in experiment [6]. Moreover, the GI50 in experiment [7] is 13.2 µM (inactive); in experiment [8] it was 10.9 µM (inactive); in experiment [9] it was 14.9 µM (inactive); in experiment [10], 13.8 µM (inactive); in experiment [16], 15.3 µM (inactive); in experiment [11], 13.5 µM (inactive). Also, the GI50 in [15] is 18.7 µM (inactive); in [14] it was 6.11 µM.

As for `Oc1ccc(Cl)cc1C1=NC(/N=C\c2ccccc2)=NC(c2ccccc2)C1` (stereo not drawn), the GI50 in [4] was 5.94 µM (inactive); in experiment [5] it was > 100 µM (inactive); in [17], 5.5 µM (inactive); in experiment [6] it was 21.7 µM (inactive); in experiment [8], > 100 µM (inactive); in experiment [9] it was 7.83 µM (inactive). The GI50 in [10] was 14.1 µM (inactive); in [16], 12.1 µM (inactive); in experiment [11], 7.01 µM (inactive); in [12] it was > 100 µM (inactive); in [13], > 100 µM (inactive); in experiment [15], > 100 µM (inactive).

For `CCOP(=O)(/C=C/n1cnc2c(=O)n(C(C)=O)c(N)nc21)OCC`, the GI50 in experiment [1], in experiment [2], in experiment [3], in [4], in experiment [5] and in experiment [6] was > 100 µM (inactive) in each case. For the same compound, the GI50 in experiment [7] was > 100 µM (inactive); in experiment [8], > 100 µM (inactive); in experiment [9], > 100 µM (inactive); in experiment [10], > 100 µM (inactive); in [16] it was 67.9 µM (inactive); in experiment [11] it was > 100 µM (inactive). In addition, the GI50 in [13] was > 100 µM (inactive); in [15] it was > 100 µM (inactive); in [14], > 100 µM.

One may read the GI50 as the concentration that inhibits growth by half.
